Results reported in patent publication US20230200393A1, “SELECTIVE HERBICIDES BASED ON SUBSTITUTED ISOXAZOLIN CARBOXAMIDES AND METCAMIFEN” (Bayer Aktiengesellschaft, priority 2020, published 2023).

Assays:
[1] = system: ZEAMA Sileno; assay: Safener seed treatment, pre-emergence herbicide crop damage; format: in vivo, maize; conditions: for HER effect: no safener
Experimental: (§1) For the safener seed treatment, sufficient seeds of the respective crops (spring wheat, TRZAS; spring barley, HORVS; maize, ZEAMA) were weighed into screw top glass bottles approximately twice the volume of the seeds.
(§2) The specified safeners, formulated as wettable powder (WP) were weighed out so that the specified rates (g a.i./kg seed) would be obtained, dissolved in water (1 ml water per 10 g of seeds), and added to the seeds to produce a slurry.
(§3) The bottles were capped and then placed in an overhead shaker (set at medium speed for ca. 60 minutes) so that the seeds were evenly coated with the slurry. The bottles were uncapped and the seeds were either placed on paper and dried for an interval of 3-4 hours prior to sowing, or directly sown. Seeds were placed in sandy loam soil in pots of a diameter of 7-8 cm, and covered with soil.
(§4) Pre-emergence application of the specified herbicides was done subsequently, on two sets of plants:
(§5) a) seed treatment with safener, as described above
(§6) The herbicides were formulated as WP and was sprayed onto the soil surface as an aqueous suspension at an equivalent water application rate of 300 l/ha.
(§7) After application, the test plants were kept in the greenhouse under good growth conditions. At intervals up to 4 weeks after application (=28 days after treatment; DAT), % crop damage observed on the treated plants was scored visually in comparison to control plants that had not received any safener or herbicide treatment.
(§8) Values in the table below are mean values of at least 2 replicates.

[2] = system: ZEAMA Sileno; assay: Tank-mix post-emergence crop damage, herbicide with/without safener metcamifen; format: in vivo, maize; conditions: for HER effect + SAF / Reduction [%] / Reduction [Difference]: Final; for HER effect: no safener, Final assessment, post-emergence
Experimental: (§9) Seeds of crops (spring wheat, TRZAS; spring barley, HORVS; maize, ZEAMA) were placed in sandy loam soil in peat pots, covered with soil and cultivated in a greenhouse under good growth conditions. Two to three weeks after sowing, the test plants were treated at the 1 to 3-leaf stage. The herbicide/safener active compound combinations according to the invention, formulated as wettable powders or emulsion concentrates, and, in parallel tests, the correspondingly formulated individual active compounds were sprayed onto the green parts of the plants in various dosages using an amount of water of 300 l/ha (converted).
(§10) The pots were returned under good growing conditions in a glasshouse and a visual assessment of herbicidal effects was made at intervals from 1 to 3 weeks after herbicide application (DAT=days after treatment). Assessment was on a percentage basis in comparison with untreated control plants (0%=no injury, 100%=complete kill).

[3] = system: TRZAS Triso; assay: as above; format: in vivo, spring wheat; conditions: 21 DAT
Experimental: as §9, §10

[4] = system: TRZAS Triso; assay: Safener seed treatment, pre-emergence herbicide crop damage; format: in vivo, spring wheat; conditions: 21 (Final) DAT; for HER effect: no safener
Experimental: as §1, §2, §3, §4, §5, §6, §7, §8

[5] = HER 80 g a.i./ha + metcamifen seed treatment 0.25 g a.i./kg seed, 26 DAT
[6] = HER 40 g a.i./ha + metcamifen seed treatment 0.25 g a.i./kg seed, 14 DAT
[7] = HER 40 g a.i./ha pre-emergence, 14 DAT
[8] = HER 80 g a.i./ha + metcamifen seed treatment 0.25 g a.i./kg seed, 14 DAT
[9] = HER 8 g a.i./ha + metcamifen 50 g a.i./ha
[10] = HER 32 g a.i./ha + metcamifen 100 g a.i./ha
[11] = HER 0.5 g a.i./ha + metcamifen 50 g a.i./ha
[12] = HER 2 g a.i./ha + metcamifen 50 g a.i./ha
[13] = HER 40 g a.i./ha + metcamifen seed treatment 0.25 g a.i./kg seed, 26 DAT
[14] = HER 5 g a.i./ha + metcamifen seed treatment 0.25 g a.i./kg seed
[15] = HER 15 g a.i./ha + metcamifen seed treatment 0.25 g a.i./kg seed
[16] = HER 8 g a.i./ha + metcamifen 100 g a.i./ha
[17] = HER 32 g a.i./ha + metcamifen 50 g a.i./ha

## C=CC1(C(=O)NC2C=C(C(=O)OC)OC2)CC(c2cc(C)cc(C)c2)=NO1 (stereo not drawn) [Example 1.90]
[1]; [5]
  Reduction [%]: 83%
  Reduction [Difference]: 25
[1]; HER 80 g a.i./ha pre-emergence, 26 DAT
  HER effect: 30%

## COCCOC(=O)C1C=CC(NC(=O)C2(C(F)(F)F)CC(c3cc(F)cc(C#N)c3)=NO2)C1 (stereo not drawn) [Example 1.2]
[1]; [6]
  HER effect + SAF: 20%
  Reduction [%]: 50%
  Reduction [Difference]: 20
[1]; [7]
  HER effect: 40%

## C=CC1(C(=O)NC2C=CC(C(=O)OC)C2)CC(c2cc(F)cc(F)c2)=NO1 (stereo not drawn) [Example 1.26]
[1]; [7]
  HER effect: 25%
[1]; [8]
  Reduction [%]: 86%
[1]; [5]
  Reduction [%]: 86%
[2]; [9]
  HER effect + SAF: 22%
  Reduction [%]: 61%
  Reduction [Difference]: 35
[2]; HER 8 g a.i./ha
  HER effect: 57%
[2]; [10]
  HER effect + SAF: 35%
  Reduction [%]: 63%
  Reduction [Difference]: 59
[2]; HER 32 g a.i./ha
  HER effect: 94%
[3]; [11]
  HER effect + SAF: 20%
  Reduction [%]: 50%
[3]; [12]
  HER effect + SAF: 80%
  Reduction [%]: 11%
  Reduction [Difference]: 10
[3]; HER 2 g a.i./ha, no safener
  HER effect: 90%

## CSCCOC(=O)C1C=CC(NC(=O)C2(C(F)(F)F)CC(c3cc(F)cc(F)c3)=NO2)C1 (stereo not drawn) [Example 1.7]
[1]; [6]
  HER effect + SAF: 55%
  Reduction [%]: 34%
  Reduction [Difference]: 28
[1]; [13]
  Reduction [%]: 44%
  Reduction [Difference]: 20
[1]; [7]
  HER effect: 83%

## C=CC1(C(=O)NC2COC(C(=O)OC)C2)CC(c2cc(F)cc(F)c2)=NO1 (stereo not drawn) [Example 1.70]
[1]; [6]
  HER effect + SAF: 20%
  Reduction [%]: 75%
  Reduction [Difference]: 60
[1]; [13]
  HER effect + SAF: 5%
  Reduction [%]: 94%
  Reduction [Difference]: 80
[1]; [8]
  Reduction [%]: 63%
  Reduction [Difference]: 60
[1]; [5]
  HER effect + SAF: 25%
  Reduction [%]: 74%
  Reduction [Difference]: 70

## COCCOC(=O)C1C=CC(NC(=O)C2(C)CC(c3cc(Cl)cc(C#N)c3)=NO2)C1 (stereo not drawn) [Example 1.5]
[1]; [8]
  HER effect + SAF: 35%
  Reduction [%]: 42%
[1]; [5]
  HER effect + SAF: 25%
  Reduction [%]: 44%

## COC(=O)C1COCC1NC(=O)C1(C)CC(c2cc(F)cc(F)c2)=NO1 (mixture of isomers) [Example 1.93]
[4]; [14]
  HER effect + SAF: 5%
  Reduction [%]: 86%
  Reduction [Difference]: 30
[4]; HER 5 g a.i./ha pre-emergence
  HER effect: 35%
[4]; [15]
  HER effect + SAF: 10%
  Reduction [%]: 85%
  Reduction [Difference]: 55
[4]; HER 15 g a.i./ha pre-emergence
  HER effect: 65%

## C=CC1(C(=O)NC2COC(C(=O)OC)C2)CC(c2cc(F)cc(F)c2)=NO1 (stereo not drawn) [Example 1.69]
[1]; [6]
  HER effect + SAF: 20%
  Reduction [%]: 79%
  Reduction [Difference]: 75
[1]; [13]
  Reduction [%]: 67%
  Reduction [Difference]: 60

## C=CC1(C(=O)NC2COC(C(=O)OC)C2)CC(c2cc(F)cc(F)c2)=NO1 (mixture of isomers) [Example 1.68]
[4]; [14]
  HER effect + SAF: 10%
  Reduction [%]: 78%
[1]; [6]
  HER effect + SAF: 30%
  Reduction [%]: 68%
  Reduction [Difference]: 63
[1]; [13]
  Reduction [%]: 74%
  Reduction [Difference]: 70
[1]; HER 40 g a.i./ha pre-emergence, 26 DAT
  HER effect: 95%
[1]; [8]
  HER effect + SAF: 75%
  Reduction [%]: 23%
  Reduction [Difference]: 22
[1]; HER 80 g a.i./ha pre-emergence, 14 DAT
  HER effect: 97%
[2]; [16]
  HER effect + SAF: 48%
  Reduction [Difference]: 48
[2]; HER 8 g a.i./ha
  HER effect: 96%
[2]; [17]
  HER effect + SAF: 67%
  Reduction [%]: 32%
  Reduction [Difference]: 31
[2]; HER 32 g a.i./ha
  HER effect: 98%

## COC(=O)C1OCCC1NC(=O)C1(C)CC(c2cc(F)cc(F)c2)=NO1 (stereo not drawn) [Example 1.92]
[1]; [6]
  Reduction [%]: 87%
  Reduction [Difference]: 65
[1]; [13]
  HER effect + SAF: 0%
  Reduction [%]: 100%
